This is an account of results in patent US20210180080A1, “USE OF ALS MUTANT PROTEIN AND THE GENE THEREOF IN PLANT BREEDING BASED ON GENE EDITING TECHNOLOGY” (priority 2018, published 2021).

Format in all cases: in vivo
In test [1] the test system is Mutant A51 rice (ALS amino acid 628 glycine to tryptophan). As to the kind of experiment: herbicide resistance identification by spraying rice seedlings, mutant. The settings on record: investigated 14 days later. The source says:
(§1) The homozygous mutant T1 individual plants identified in Examples 2 and 3 were propagated, and the seeds were harvested in the artificial climate room of Nanjing Jiangsu Academy of Agricultural Sciences, which were the T2 generation; the T2 generation was continued to be propagated to obtain T3 Generation seeds. After accelerating the germination of the harvested T3 seeds, they were sown at a density of 450 kg hm^−2. When the rice growed to two leaves and one heart, the field water was drained and imazethapyr (aqueous agent, purchased from Nanjing Aijin Agrochemical Co., Ltd.) was sprayed at 210, 700, and 1400 g(a.i.) hm^−2 concentrations, respectively, with the water as the control group. After spraying for 24 h, the water was rehydrated, and the resistance was investigated 14 days later.
(§2) After accelerating germination of the T3 generation seeds in Example 4, they were sown at a density of 450 kg hm^−2. When the rice growed to two leaves and one heart, water in the field water was drained and Bailongtong (aqueous agent, purchased from Nanjing Aijin Agrochemical Co., Ltd.) was sprayed at 240, 2400, 4800 g(ai) hm^−2 concentration with water as the control group. After spraying for 24 h, the water was rehydrated, and the resistance was investigated 14 days later.

Test [2] concerns transgenic lines A1-A58 of rice Nanjing 9108. Briefly: herbicide screening of T1 generation transgenic lines. The settings on record: 210 g (a.i.) hm^−2, investigated after 14 days. The protocol: The T0 generation plants were harvested as an individual plant, and the harvested seeds were germinated and sown at a density of 450 kg hm^−2. When the rice growed to two leaves and one heart, the water was drained from the field and imazethapyr (aqueous agent, purchased from Nanjing Aijin Agrochemical Co., Ltd.) was sprayed at 210 g (a.i.) hm^−2. Rehydrate after spraying for 24 h, and investigate resistance after 14 days. Plants with all withered or dead leaves were susceptibleness, while the healthy and viable plants were resistance. […] Therefore, the frequency of obtaining herbicide resistant strains in this study was 1.72%. According to reports, the mutation frequency of herbicide resistant rice lines obtained by chemical mutagenesis was 0.00003^˜0.006%.

The test system of test [3] is wild-type rice Nanjing 9108. Briefly: herbicide resistance identification by spraying rice seedlings, wild type. The settings on record: investigated 14 days later.
Source text: as §1, §2

Setting [4] is: 210 g(a.i.) hm^−2 sprayed at two leaves and one heart.
[5] abbreviates: 210 g(a.i.) hm^−2 sprayed at two leaves and one heart, listed as Imazethapyr.

Turning to `CCc1cnc(C2=NC(C)(C(C)C)C(=O)N2)c(C(=O)O)c1` (stereo not drawn) [imazethapyr], the “resistance (survival) of mutant plants after spraying” value was “could survive” in test [1] (setting [4]); “still grow and develop normally” in test [1] (setting [5]); “survived” in test [1] (240 g(ai) hm^−2 sprayed at two leaves and one heart); “could survive” in test [1] (700 g(a.i.) hm^−2 sprayed at two leaves and one heart, T3 generation); “could survive” in test [1] (1400 g(a.i.) hm^−2 sprayed at two leaves and one heart, T3 generation); “survived” in test [1] (2400 g(ai) hm^−2 sprayed at two leaves and one heart, T3 generation). In addition, the “resistance of A51 line plants after spraying” value in test [2] (A51 line, T1 generation) is “survived and showed herbicide resistance”. Besides, the “resistance of the other 57 lines after spraying” value in test [2] (the other 57 of lines A1-A58, T1 generation) is recorded as “died”. Moreover, the “resistance (survival) of wild-type plants after spraying” value was “all died” in test [3] (setting [4]); “appear to die in whole” in test [3] (setting [5]); “all died” in test [3] (700 g(a.i.) hm^−2 sprayed at two leaves and one heart); “all died” in test [3] (1400 g(a.i.) hm^−2 sprayed at two leaves and one heart).
